In patent publication EP4613329A1, “COMPOUND FOR INHIBITING BRD PROTEIN” (Benobio Co., Ltd., priority 2024, dated 2025):

Columns and labels:
BRD2 (BD1) = target: T1, BRD2 (BD1) (Homo sapiens, UniProt P25440); assay: Binding inhibitory effect on BRD2 protein (AlphaScreen, GST-BRD2 (BD1) / biotinylated acetyl-histone H4 peptide); settings: 100 nM GST-BRD2 (BD1), 100 nM biotinylated acetyl-histone H4 (Lys5, 8, 12, 16) peptide
T1 construct: a bromodomain of BRD2 (BD1) and BRD3 (BD1), one of the BRD protein family
T1 sequence (P25440 74-180 limits assumed, species assumed): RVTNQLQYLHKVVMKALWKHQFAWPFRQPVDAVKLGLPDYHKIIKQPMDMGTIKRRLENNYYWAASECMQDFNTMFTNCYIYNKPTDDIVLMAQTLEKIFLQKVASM

BRD3 (BD1) = target: T2, BRD3 (BD1) (Homo sapiens, UniProt Q15059); assay: Binding inhibitory effect on BRD3 protein (same manner as Experimental Example 1-1)
T2 construct: a bromodomain of BRD2 (BD1) and BRD3 (BD1), one of the BRD protein family; GST
T2 sequence (Q15059 34-140 limits assumed, species assumed): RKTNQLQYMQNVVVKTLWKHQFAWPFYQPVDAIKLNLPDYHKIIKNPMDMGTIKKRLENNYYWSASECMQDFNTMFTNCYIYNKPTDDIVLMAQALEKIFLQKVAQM

[1] = system: retinal degeneration mouse model; assay: Electroretinogram (ERG) in blue LED-induced retinal degeneration mouse model; format: in vivo, albino BALB/c mice; settings: compound 24 nM, Com. Ex. 4 25 mg/kg; for Wavelength enhanced multiple compared to normal saline-treated group, Average value: average of a-wave and b-wave, intravitreal; for Wavelength enhanced multiple compared to normal saline-treated group, a-wave / Wavelength enhanced multiple compared to normal saline-treated group, b-wave: single intravitreal injection 1 hour after LED exposure
Experimental: In order to fabricate a retinal degeneration model, 7-week-old male albino BALB/c mice were used. Three mice were randomly assigned to each test group, and light and dark were maintained at 12-hour intervals. Each mouse was dark-adapted for 24 hours and then the pupils were dilated with 0.5% tropicamide and 0.5% phenylephrine hydrochloride eye drops (Santen, Osaka, Japan) 30 minutes before blue LED exposure. Unanesthetized mice were exposed to 2,000 lux of a blue LED (460 ± 10 nm) for 2 hours in a cage with reflective interiors. The light intensity was measured using an LED photometer (model TM-201L, TENMARS Electronics, Taipei, Taiwan). After exposure to blue LED, the mice were kept in the dark for 24 hours and then resumed on a 12-hour light/dark cycle for 3 days.
In a test substance control test, mice with retinal degeneration were divided into a normal saline-administered group and a compound-administered group (24 nM) of the present disclosure, and 3 mice were randomly assigned to each test group. A positive control test was divided into a normal saline-administered group and an Eyela (25 mg/kg mouse body weight)-administered group (Comparative Example 4), and three mice were randomly assigned to each test group.
All test groups were administered as a single dose by intravitreal injection 1 hour after LED exposure.
That is, mice were stored in a completely dark room for 16 hours before ERG recordings. All animals were anesthetized intraperitoneally with zolazepam (20 mg/kg) and xylazine (7.5 mg/kg). The cornea was coated with hydroxypropyl methylcellulose gel and covered with a gold ring contact electrode. Ground and reference electrodes were disposed subcutaneously on the tail and ears, respectively. Stimuli were short white flashes delivered through a Ganzfeld stimulator (UTAS-3000; LKC Technologies, Gaithersburg, MD, USA). The signal was amplified and filtered through a digital band-pass filter in the range of 5 to 300 Hz to generate a and b waves. Scotopic ERG, and rod-mediated responses were obtained at increasing light intensities of 0.025 and 3.96 cd/s • m^2. Photopic, cone-mediated responses were obtained after 5-min light adaptation to background light intensity. The recordings were obtained at the light intensity of 6.28 cd/s • m^2. Each recording was the average of three responses obtained within a 15-second stimulation interval. A-wave amplitude was measured from a baseline to the maximum a-wave peak, and b-wave amplitude was measured from the maximum a-wave peak to the maximum b-wave peak.

SMILES: CN1Cc2c(cccc2-c2ccccc2-c2ccc(CN3CCOCC3)o2)C1=O [Compound 13, 2-methyl-4-(2-(5-(morpholinomethyl)furan-2-yl)phenyl)isoindoline-1-one]
- IC50 (BRD2 (BD1)): 7.65 µM
- IC50 (BRD3 (BD1)): 3.65 µM
- Wavelength enhanced multiple compared to normal saline-treated group, Average value [1]: 1.33
- Wavelength enhanced multiple compared to normal saline-treated group, a-wave [1]: 1.29
- Wavelength enhanced multiple compared to normal saline-treated group, b-wave [1]: 1.36

SMILES: CN1Cc2c(cccc2-c2ccccc2-c2ccc(CNCc3cnn(C)c3)o2)C1=O [Compound 18, 2-methyl-4-(2-(5-((((1-methyl-1H-pyrazole-4yl)methyl)amino)methyl)furan-2-yl)phenyl)isoindoline-1-one]
- IC50 (BRD2 (BD1)): 6.51 µM
- IC50 (BRD3 (BD1)): 2.67 µM
- Wavelength enhanced multiple compared to normal saline-treated group, Average value [1]: 2.04
- Wavelength enhanced multiple compared to normal saline-treated group, a-wave [1]: 2.05
- Wavelength enhanced multiple compared to normal saline-treated group, b-wave [1]: 2.03

SMILES: CNC(=O)C1(Cc2ccc(F)cc2)CCN(Cc2ccc(-c3ccccc3-c3cccc4c3CN(C)C4=O)o2)CC1 [Compound 21, 2-methyl-4-(2-(5-(((4-(4-fluorobenzyl)-4'-carboxamidyl)piperidine)methyl)furan-2-yl)phenyl)isoindoline-1-one]
- IC50 (BRD2 (BD1)): 13.9 µM
- IC50 (BRD3 (BD1)): 1.16 µM
- Wavelength enhanced multiple compared to normal saline-treated group, Average value [1]: 2.30
- Wavelength enhanced multiple compared to normal saline-treated group, a-wave [1]: 2.17
- Wavelength enhanced multiple compared to normal saline-treated group, b-wave [1]: 2.42

SMILES: CNC(=O)C1(C)CN(Cc2ccc(-c3ccccc3-c3cccc4c3CN(C)C4=O)o2)CCC1O (centres unmarked) [Compound 25]
- IC50 (BRD2 (BD1)): 7.68 µM
- IC50 (BRD3 (BD1)): 1.29 µM
- Wavelength enhanced multiple compared to normal saline-treated group, Average value [1]: 1.27
- Wavelength enhanced multiple compared to normal saline-treated group, a-wave [1]: 1.52
- Wavelength enhanced multiple compared to normal saline-treated group, b-wave [1]: 1.01

SMILES: CN1Cc2c(cccc2-c2ccccc2-c2ccc(COCN3CCC(F)(F)CC3)o2)C1=O [Compound 37, 2-methyl-4-(2-(5-((((4,4-difluoropiperidine-1-yl)methoxy)-3-carboxamidyl)methyl)furan-2-yl)phenyl)isoindoline-1-one]
- IC50 (BRD2 (BD1)): 9.5 µM
- IC50 (BRD3 (BD1)): 4.76 µM
- Wavelength enhanced multiple compared to normal saline-treated group, Average value [1]: 1.38
- Wavelength enhanced multiple compared to normal saline-treated group, a-wave [1]: 1.45
- Wavelength enhanced multiple compared to normal saline-treated group, b-wave [1]: 1.31

SMILES: CNC(=O)C1(Cc2ccc(F)cc2)CCN(Cc2oc(-c3ccccc3-c3cccc4c3CN(C)C4=O)cc2C)CC1 [Compound 39, 2-methyl-4-(2-(5-((3-methyl(4-(4-fluorobenzyl)-4'-carboxamidyl)piperidine)methyl)furan-2-yl)phenyl)isoindoline-1-one]
- IC50 (BRD2 (BD1)): 8.67 µM
- IC50 (BRD3 (BD1)): 4.16 µM
- Wavelength enhanced multiple compared to normal saline-treated group, Average value [1]: 1.36
- Wavelength enhanced multiple compared to normal saline-treated group, a-wave [1]: 1.21
- Wavelength enhanced multiple compared to normal saline-treated group, b-wave [1]: 1.51

SMILES: CCC1(C(=O)NC)CCCN(Cc2oc(-c3ccccc3-c3cccc4c3CN(C)C4=O)cc2C)C1 (centres unmarked) [Compound 40]
- IC50 (BRD2 (BD1)): 10.6 µM
- IC50 (BRD3 (BD1)): 3.96 µM
- Wavelength enhanced multiple compared to normal saline-treated group, Average value [1]: 1.30
- Wavelength enhanced multiple compared to normal saline-treated group, a-wave [1]: 1.16
- Wavelength enhanced multiple compared to normal saline-treated group, b-wave [1]: 1.43
